{"source": "paper PMC4037836", "about": "(British Journal of Cancer, 2014)", "key": {"[1]": {"experiment": "Plasma pharmacokinetics of paclitaxel, pazopanib and lapatinib in cycle 1", "format": "in vivo, human", "conditions": "for AUC(0-t) / Cmax / half-life / AUC(0-inf): human, plasma; for AUC(0-t): Lapatinib AUC(0–24)"}, "CYP2C8": {"system": "CYP2C8", "format": "in vivo, human", "conditions": "increase in paclitaxel AUC and Cmax less than two-fold in the presence of pazopanib and lapatinib"}, "[2]": {"conditions": "pazopanib and lapatinib combination, daily; ref de Jonge et al, 2013; cited from earlier work"}, "CYP3A4": {"system": "CYP3A4", "format": "in vivo, human", "conditions": "increase in paclitaxel AUC and Cmax less than two-fold in the presence of pazopanib and lapatinib"}, "[3]": {"conditions": "pazopanib in combination with paclitaxel; ref Tan et al, 2010; cited from earlier work"}, "[4]": {"conditions": "day 15 of cycle 1, paclitaxel 50 mg m^−2, pazopanib 400 mg, lapatinib 1000 mg, n=6, geometric mean (95% confidence interval)"}, "[5]": {"conditions": "day 15 of cycle 1, paclitaxel 50 mg m^−2, pazopanib 800 mg, lapatinib 1000 mg, n=3, median (range)"}, "[6]": {"conditions": "day 15 of cycle 1, paclitaxel 80 mg m^−2, pazopanib 400 mg, lapatinib 1000 mg, n=9, geometric mean (95% confidence interval)"}, "[7]": {"conditions": "day 15 of cycle 1, paclitaxel 80 mg m^−2, pazopanib 800 mg, lapatinib 1000 mg, n=1, individual value"}, "[8]": {"conditions": "patients receiving pazopanib 400 mg, lapatinib 1000 mg"}}, "data": [{"compound": "5-((4-((2,3-dimethyl-2H-indazol-6-yl)methylamino]-2-pyrimidinyl)amino)-2-methyl-benzenesulfonamide [pazopanib]", "values": [{"measurement": "Pazopanib AUC(0–24)", "setting": "[1]; [4]", "value": "633 (279, 1436) μg*hr ml^−1"}, {"measurement": "Pazopanib Cmax", "setting": "[1]; [4]", "value": "31.7 (14.6, 68.8) μg ml^−1"}, {"measurement": "Pazopanib AUC(0–24)", "setting": "[1]; [5]", "value": "960 (736, 1620) μg*hr ml^−1"}, {"measurement": "Pazopanib Cmax", "setting": "[1]; [5]", "value": "48.9 (40.7, 80.9) μg ml^−1"}, {"measurement": "Pazopanib AUC(0–24)", "setting": "[1]; [6]", "value": "646 (432, 967) μg*hr ml^−1"}, {"measurement": "Pazopanib Cmax", "setting": "[1]; [6]", "value": "32 (21.9, 46.9) μg ml^−1"}, {"measurement": "Pazopanib AUC(0–24)", "setting": "[1]; [7]", "value": 1027, "unit": "µg·h/mL"}, {"measurement": "Pazopanib Cmax", "setting": "[1]; [7]", "value": 57.4, "unit": "µg/mL"}, {"measurement": "Change in mean AUC0–24 of pazopanib with a two-fold increase in pazopanib dose", "setting": "[1]; pazopanib 400–800 mg per day", "value": "less than two-fold increase"}, {"measurement": "Change in mean Cmax of pazopanib with a two-fold increase in pazopanib dose", "setting": "[1]; pazopanib 400–800 mg per day", "value": "less than two-fold increase"}, {"measurement": "Inhibition of CYP2C8 (classification)", "setting": "CYP2C8", "value": "weak inhibitors"}, {"measurement": "Recommended phase II dosing", "setting": "[2]", "value": 800, "unit": "mg"}]}, {"compound": "CS(=O)(=O)CCNCc1ccc(-c2ccc3ncnc(Nc4ccc(OCc5cccc(F)c5)c(Cl)c4)c3c2)o1", "note": "[lapatinib]", "values": [{"measurement": "Lapatinib Cmax", "setting": "[1]; [6]", "value": "1.95 (1.13, 3.37) μg ml^−1"}, {"measurement": "AUC(0-t)", "setting": "[1]; oral, day 15 of cycle 1, paclitaxel 50 mg m^−2, pazopanib 400 mg, lapatinib 1000 mg, n=6, geometric mean (95% confidence interval)", "value": 20, "unit": "µg·h/mL"}, {"measurement": "AUC(0-t)", "setting": "[1]; oral, day 15 of cycle 1, paclitaxel 50 mg m^−2, pazopanib 800 mg, lapatinib 1000 mg, n=3, median (range)", "value": 51.4, "unit": "µg·h/mL"}, {"measurement": "AUC(0-t)", "setting": "[1]; oral, day 15 of cycle 1, paclitaxel 80 mg m^−2, pazopanib 400 mg, lapatinib 1000 mg, n=9, geometric mean (95% confidence interval)", "value": 27.1, "unit": "µg·h/mL"}, {"measurement": "AUC(0-t)", "setting": "[1]; oral, day 15 of cycle 1, paclitaxel 80 mg m^−2, pazopanib 800 mg, lapatinib 1000 mg, n=1, individual value", "value": 11.6, "unit": "µg·h/mL"}, {"measurement": "Cmax", "setting": "[1]; oral, Lapatinib Cmax, day 15 of cycle 1, paclitaxel 50 mg m^−2, pazopanib 400 mg, lapatinib 1000 mg, n=6, geometric mean (95% confidence interval)", "value": 1270, "unit": "ng/mL"}, {"measurement": "Increase in AUC0–24 of lapatinib on increasing paclitaxel from 50 to 80 mg m^−2", "setting": "[1]; [8]", "value": 1.4, "unit": "fold"}, {"measurement": "Increase in Cmax of lapatinib on increasing paclitaxel from 50 to 80 mg m^−2", "setting": "[1]; [8]", "value": 1.5, "unit": "fold"}, {"measurement": "Inhibition of CYP3A4 (classification)", "setting": "CYP3A4", "value": "weak inhibitors"}, {"measurement": "Inhibition of CYP2C8 (classification)", "setting": "CYP2C8", "value": "weak inhibitors"}, {"measurement": "Recommended phase II dosing", "setting": "[2]", "value": 1500, "unit": "mg"}]}, {"compound": "CC(=O)O[C@H]1C(=O)[C@@]2(C)[C@H]([C@H](OC(=O)c3ccccc3)[C@]3(O)C[C@H](OC(=O)[C@H](O)[C@@H](NC(=O)c4ccccc4)c4ccccc4)C(C)=C1C3(C)C)[C@]1(OC(C)=O)CO[C@@H]1C[C@@H]2O", "note": "[paclitaxel]", "values": [{"measurement": "Paclitaxel CL", "setting": "[1]; day 15, 50 mg m^−2 paclitaxel+400 mg pazopanib+1000 mg lapatinib, n=4, geometric mean (95% confidence interval)", "value": "16.3 (14.8, 17.9) l h^−1 m^−2"}, {"measurement": "Paclitaxel CL", "setting": "[1]; day 15, 50 mg m^−2 paclitaxel+800 mg pazopanib+1000 mg lapatinib, n=3, median (range)", "value": "16.3 (14.9, 20.3) l h^−1 m^−2"}, {"measurement": "Paclitaxel CL", "setting": "[1]; day 15, 80 mg m^−2 paclitaxel+400 mg pazopanib+1000 mg lapatinib (MTR), n=9, geometric mean (95% confidence interval)", "value": "15.3 (13.2, 17.8) l h^−1 m^−2"}, {"measurement": "Paclitaxel CL", "setting": "[1]; day 15, 80 mg m^−2 paclitaxel+800 mg pazopanib+1000 mg lapatinib, n=1, individual value", "value": 18.3, "unit": "l h^−1 m^−2"}, {"measurement": "half-life", "setting": "[1]; intravenous", "value": 14.8, "unit": "h"}, {"measurement": "AUC(0-inf)", "setting": "[1]; intravenous, 50 mg m^−2", "value": 2.15, "unit": "µg·h/mL"}, {"measurement": "Cmax", "setting": "[1]; intravenous, 50 mg m^−2", "value": 1440, "unit": "ng/mL"}, {"measurement": "half-life", "setting": "[1]; intravenous, 50 mg m^−2", "value": 11.7, "unit": "h"}, {"measurement": "Cmax", "setting": "[1]; intravenous, 50 mg m^−2, Paclitaxel Cmax, day 1 (pazopanib and lapatinib withheld), 50 mg m^−2 paclitaxel+800 mg pazopanib+1000 mg lapatinib, n=3, median (range)", "value": 1270, "unit": "ng/mL"}, {"measurement": "AUC(0-inf)", "setting": "[1]; intravenous, 80 mg m^−2", "value": 3.82, "unit": "µg·h/mL"}, {"measurement": "Cmax", "setting": "[1]; intravenous, 80 mg m^−2", "value": 2290, "unit": "ng/mL"}, {"measurement": "Cmax", "setting": "[1]; intravenous, 80 mg m^−2, Paclitaxel Cmax, day 1 (pazopanib and lapatinib withheld), 80 mg m^−2 paclitaxel+800 mg pazopanib+1000 mg lapatinib, n=3, median (range)", "value": 3320, "unit": "ng/mL"}, {"measurement": "AUC(0-inf)", "setting": "[1]; intravenous, Paclitaxel AUC(0-∞), day 15, 50 mg m^−2 paclitaxel+800 mg pazopanib+1000 mg lapatinib, n=3, median (range)", "value": 3.06, "unit": "µg·h/mL"}, {"measurement": "AUC(0-inf)", "setting": "[1]; intravenous, Paclitaxel AUC(0-∞), day 15, 80 mg m^−2 paclitaxel+400 mg pazopanib+1000 mg lapatinib (MTR), n=9, geometric mean (95% confidence interval)", "value": 5.23, "unit": "µg·h/mL"}, {"measurement": "AUC(0-inf)", "setting": "[1]; intravenous, Paclitaxel AUC(0–∞), day 15, 50 mg m^−2 paclitaxel+400 mg pazopanib+1000 mg lapatinib, n=4, geometric mean (95% confidence interval)", "value": 3.07, "unit": "µg·h/mL"}, {"measurement": "AUC(0-inf)", "setting": "[1]; intravenous, Paclitaxel AUC(0–∞), day 15, 80 mg m^−2 paclitaxel+800 mg pazopanib+1000 mg lapatinib, n=1, individual value", "value": 4.37, "unit": "µg·h/mL"}, {"measurement": "Cmax", "setting": "[1]; intravenous, Paclitaxel Cmax, day 15, 50 mg m^−2 paclitaxel+400 mg pazopanib+1000 mg lapatinib, n=5, geometric mean (95% confidence interval)", "value": 2330, "unit": "ng/mL"}, {"measurement": "Cmax", "setting": "[1]; intravenous, Paclitaxel Cmax, day 15, 50 mg m^−2 paclitaxel+800 mg pazopanib+1000 mg lapatinib, n=3, median (range)", "value": 1720, "unit": "ng/mL"}, {"measurement": "Cmax", "setting": "[1]; intravenous, Paclitaxel Cmax, day 15, 80 mg m^−2 paclitaxel+800 mg pazopanib+1000 mg lapatinib, n=1, individual value", "value": 2710, "unit": "ng/mL"}, {"measurement": "Increase in Cmax of paclitaxel relative to paclitaxel alone", "setting": "[3]", "value": 36, "unit": "%"}, {"measurement": "Increase in geometric mean AUC of paclitaxel relative to paclitaxel alone", "setting": "[3]", "value": 26, "unit": "%"}]}]}
